Holding throughout (format): functional
Common to all, as to parameters: scale not given: the % may be the effect or the level left

A short description of assay [1]: Antioxidant activity assessed as inhibition of hydroxyl radical production at 0.5% concentration%.
Assay [2] in a line: Antioxidant activity assessed as inhibition of hydroxyl radical production after heat processing.
Assay [3] in a line: Antioxidant activity assessed as inhibition of hydroxyl radical production at 0.05% concentration%.

As for `CC(C)=CCC[C@](C)(O[C@@H]1O[C@H](CO[C@@H]2O[C@H](CO)[C@@H](O)[C@H](O)[C@H]2O)[C@@H](O)[C@H](O)[C@H]1O)[C@H]1CC[C@]2(C)[C@@H]1[C@H](O)C[C@@H]1[C@@]3(C)CC[C@H](O[C@@H]4O[C@H](CO)[C@@H](O)[C@H](O)[C@H]4O[C@@H]4O[C@H](CO)[C@@H](O)[C@H](O)[C@H]4O)C(C)(C)[C@@H]3CC[C@]12C`, the Activity came to 24% in assay [1], 42% in assay [2] and 47% in assay [3].

These data come from ChEMBL document CHEMBL1156612, “The chemical and hydroxyl radical scavenging activity changes of ginsenoside-Rb1 by heat processing” (Bioorg Med Chem Lett, 2008).
